The numbers were not newly measured in patent US20080318886A1, “Methods of Increasing Cancer Sensitivity to Chemotherapeutic Agents Using Chimeric ISF35” (priority 2006, published 2008), which cites them from elsewhere.

Each structure is given as a SMILES string.

This series has as its system CLL. The conditions noted are these: CLL patients, first line treatment.

In the case of `Nc1nc(F)nc2c1ncn2[C@@H]1O[C@H](CO)[C@@H](O)[C@@H]1O` [Fludaribine], the overall response rate is on record as ~70%.
